The values that follow come from patent US11414424B2, “Cardiac sarcomere inhibitors” (Cytokinetics, Inc., priority 2018, dated 2022).

One experiment concerns bovine cardiac myofibrils. Kind of experiment: Myofibril assay: PK/LDH-coupled steady-state ATPase activity of skinned bovine cardiac myofibrils. Format: biochemical. The conditions noted are these: Ca2+ activating to 75% of maximal rate. How it is done:
To evaluate the effect of compounds on the ATPase activity of full-length cardiac myosin in the context of the native sarcomere, skinned myofibril assays were performed. Bovine cardiac myofibrils were obtained by homogenizing bovine cardiac left ventricular tissue in the presence of a detergent such as triton X-100. Such treatment removes membranes and a majority of the soluble cytoplasmic proteins but leaves intact the cardiac sarcomeric acto-myosin apparatus. Myofibril preparations retain the ability to hydrolyze ATP in a Ca^2+ regulated manner. ATPase activities of such myofibril preparations in the presence and absence of compounds were assayed at Ca^2+ concentrations activating to a defined fraction of the maximal rate (i.e., […], 75%). Small molecule agents were assessed for their ability to inhibit the steady-state ATPase activity of bovine cardiac myofibrils using pyruvate kinase and lactate dehydrogenase (PK/LDH)-coupled enzyme system. This assay regenerates myosin-produced ADP into ATP by oxidizing NADH, producing an absorbance change at 340 nm. Prior to testing small molecule agents, the bovine cardiac myofibrils were assessed for their calcium responsiveness and the calcium concentration that achieves either a 50% (pCa50) or 75% (pCa75) activation of the myofibril system was chosen as the final condition for assessing the inhibitory activity of the small molecule agents. All enzymatic activity was measured in a buffered solution containing 12 mM PIPES (piperazine-N,N′-bis(2-ethanesulfonic acid), 2 mM magnesium chloride at pH 6.8 (PM 12 buffer). Final assay conditions were 1 mg/mL of bovine cardiac myofibrils, 4 U/mL pyruvate kinase, 6 U/mL lactate dehydrogenase, 50 μM ATP, 0.1 mg/mL BSA (bovine serum albumin), 10 ppm antifoam, 1 mM DTT, 0.5 mM NADH, 1.5 mM PEP, 0.6 mM EGTA, and an amount of CaCl2 sufficient to achieve either 50% or 75% activation of the myofibril ATPase activity. Results for compounds tested are provided in Table A. Compounds tested were prepared in accordance with the synthetic procedures described herein.
Regarding `O=C1C(C2CC(O)C2)N(Cc2ccc(F)cc2)C(=O)CN1c1ccc(Cl)cc1F` (single isomer, unassigned) [Compound 866A, 1-(4-chloro-2-fluorophenyl)-4-(4-fluorobenzyl)-3-(3-hydroxycyclobutyl)piperazine-2,5-dione], the “CDMF75 IC15” value was determined as 4400 nM.

On to `O=C1C(C2CC(O)C2)N(Cc2ccc(F)cc2)C(=O)CN1c1ccc(Cl)cc1F` (single isomer, unassigned) [Compound 866B, 1-(4-chloro-2-fluorophenyl)-4-(4-fluorobenzyl)-3-(3-hydroxycyclobutyl)piperazine-2,5-dione], for which the “CDMF75 IC15” value was above 39000 nM.

Consider `O=C1C(C2CC(O)C2)N(Cc2ccc(F)cc2)C(=O)CN1c1ccc(Cl)cc1F` (single isomer, unassigned) [Compound 866C, 1-(4-chloro-2-fluorophenyl)-4-(4-fluorobenzyl)-3-(3-hydroxycyclobutyl)piperazine-2,5-dione], for which the “CDMF75 IC15” value worked out at 2300 nM.

For the molecule `O=C1C(C2CC(O)C2)N(Cc2ccc(F)cc2)C(=O)CN1c1ccc(Cl)cc1F` (single isomer, unassigned) [Compound 866D, 1-(4-chloro-2-fluorophenyl)-4-(4-fluorobenzyl)-3-(3-hydroxycyclobutyl)piperazine-2,5-dione], the “CDMF75 IC15” value was above 39000 nM.

On to `NC(=O)[C@H]1C[C@]2(C1)C(=O)N(c1ncc(Cl)cc1F)CC(=O)N2Cc1ccc(C(F)F)cc1` (single isomer, unassigned) [Compound 875A, 8-(5-chloro-3-fluoropyridin-2-yl)-5-(4-(difluoromethyl)benzyl)-6,9-dioxo-5,8-diazaspiro[3.5]nonane-2-carboxamide], for which the “CDMF75 IC15” value amounted to 2200 nM.

With `NC(=O)[C@H]1C[C@]2(C1)C(=O)N(c1ncc(Cl)cc1F)CC(=O)N2Cc1ccc(C(F)F)cc1` (single isomer, unassigned) [Compound 875B, 8-(5-chloro-3-fluoropyridin-2-yl)-5-(4-(difluoromethyl)benzyl)-6,9-dioxo-5,8-diazaspiro[3.5]nonane-2-carboxamide], the “CDMF75 IC15” value came out at 3200 nM.

`N#Cc1ccc(N2CC(=O)N(Cc3ccc(Cl)cc3)C3(CCN(C(=O)C4COC4)C3)C2=O)c(F)c1` (stereo in doubt) [Compound 210, (S)-4-(6-(4-chlorobenzyl)-2-(oxetane-3-carbonyl)-7,10-dioxo-2,6,9-triazaspiro[4.5]decan-9-yl)-3-fluorobenzonitrile]: the “CDMF75 IC15” value is 1700 nM.

Consider `N#Cc1ccc(N2CC(=O)N(Cc3ccc(Cl)cc3)C3(CCN(C(=O)C4CCC4)C3)C2=O)c(F)c1` (stereo in doubt) [Compound 212, (S)-4-(6-(4-chlorobenzyl)-2-(cyclobutanecarbonyl)-7,10-dioxo-2,6,9-triazaspiro[4.5]decan-9-yl)-3-fluorobenzonitrile], for which the “CDMF75 IC15” value amounted to 900 nM.

As to `N#Cc1ccc(N2CC(=O)N(Cc3ccc(Cl)cc3)C3(CCN(C(=O)C4CC4)C3)C2=O)c(F)c1` (stereo in doubt) [Compound 213, (S)-4-(6-(4-chlorobenzyl)-2-(cyclopropanecarbonyl)-7,10-dioxo-2,6,9-triazaspiro[4.5]decan-9-yl)-3-fluorobenzonitrile], the “CDMF75 IC15” value was found to be 400 nM.

`N#Cc1ccc(N2CC(=O)N(Cc3ccc(C(F)(F)F)cc3)C3(CCN(C=O)C3)C2=O)c(F)c1` (stereo in doubt) [Compound 222, (S)-3-fluoro-4-(2-formyl-7,10-dioxo-6-(4-(trifluoromethyl)benzyl)-2,6,9-triazaspiro[4.5]decan-9-yl)benzonitrile]: the “CDMF75 IC15” value is 700 nM.

Turning to `CC(C)N1CC(=O)N(Cc2ccc(C(F)(F)F)cc2)C2(CCN(C(=O)NC3CCC3)C2)C1=O` (stereo not drawn) [Compound 1, N-cyclobutyl-9-isopropyl-7,10-dioxo-6-(4-(trifluoromethyl)benzyl)-2,6,9-triazaspiro[4.5]-decane-2-carboxamide], the “CDMF75 IC15” value came out at 9500 nM.

Turning to `CC(C)N1CC(=O)N(Cc2ccc(Cl)cc2)C2(CN(c3ccccc3)C2)C1=O` [Compound 2, 5-(4-chlorobenzyl)-8-isopropyl-2-phenyl-2,5,8-triazaspiro[3.5]nonane-6,9-dione], the “CDMF75 IC15” value worked out at 1800 nM.

Consider `CC(C)N1CC(=O)N(Cc2ccc(Cl)cc2)C2(CN(c3ccc(F)cc3)C2)C1=O` [Compound 3, 5-(4-chlorobenzyl)-2-(4-fluorophenyl)-8-isopropyl-2,5,8-triazaspiro[3.5]-nonane-6,9-dione], for which the “CDMF75 IC15” value came to 1700 nM.

For `CC(C)N1CC(=O)N(Cc2ccc(Cl)cc2)C2(CN(c3ccc(Cl)cc3)C2)C1=O` [Compound 4, 5-(4-chlorobenzyl)-2-(4-chlorophenyl)-8-isopropyl-2,5,8-triazaspiro[3.5]-nonane-6,9-dione], the “CDMF75 IC15” value is 2500 nM.

In the case of `CC(C)N1CC(=O)N(Cc2ccc(Cl)cc2)C2(CN(c3cccc(Cl)c3)C2)C1=O` [Compound 5, 5-(4-chlorobenzyl)-2-(3-chlorophenyl)-8-isopropyl-2,5,8-triazaspiro[3.5]-nonane-6,9-dione], the “CDMF75 IC15” value came to 1900 nM.

Take `CC(C)N1CC(=O)N(Cc2ccc(Cl)cc2)C2(CN(c3ccccn3)C2)C1=O` [Compound 6, 5-(4-chlorobenzyl)-8-isopropyl-2-(pyridin-2-yl)-2,5,8-triazaspiro[3.5]-nonane-6,9-dione]: the “CDMF75 IC15” value came out at 900 nM.

Take `CC(C)N1CC(=O)N(Cc2ccc(Cl)cc2)C2(CN(c3cccnc3)C2)C1=O` [Compound 7, 5-(4-chlorobenzyl)-8-isopropyl-2-(pyridin-3-yl)-2,5,8-triazaspiro[3.5]-nonane-6,9-dione]: the “CDMF75 IC15” value was found to be 1900 nM.

Regarding `CC(C)N1CC(=O)N(Cc2ccc(Cl)cc2)C2(CN(c3ccncc3)C2)C1=O` [Compound 8, 5-(4-chlorobenzyl)-8-isopropyl-2-(pyridin-4-yl)-2,5,8-triazaspiro[3.5]-nonane-6,9-dione], the “CDMF75 IC15” value is 3300 nM.

Turning to `Cc1ccc(N2CC3(C2)C(=O)N(C(C)C)CC(=O)N3Cc2ccc(Cl)cc2)nc1` [Compound 9, 5-(4-chlorobenzyl)-8-isopropyl-2-(5-methyl-pyridin-2-yl)-2,5,8-triazaspiro[3.5]nonane-6,9-dione], the “CDMF75 IC15” value turned out to be 2400 nM.

For `Cc1cc(N2CC3(C2)C(=O)N(C(C)C)CC(=O)N3Cc2ccc(Cl)cc2)ccn1` [Compound 10, 5-(4-chlorobenzyl)-8-isopropyl-2-(2-methyl-pyridin-4-yl)-2,5,8-triazaspiro[3.5]nonane-6,9-dione], the “CDMF75 IC15” value was 5200 nM.

Take `CC(C)N1CC(=O)N(Cc2ccc(Cl)cc2)C2(CN(c3ncccn3)C2)C1=O` [Compound 11, 5-(4-chlorobenzyl)-8-isopropyl-2-(pyrimidin-2-yl)-2,5,8-triazaspiro-[3.5]nonane-6,9-dione]: the “CDMF75 IC15” value turned out to be 17400 nM.

With `CC(C)N1CC(=O)N(Cc2ccc(Cl)cc2)C2(CN(c3cnccn3)C2)C1=O` [Compound 12, 5-(4-chlorobenzyl)-8-isopropyl-2-(pyrazin-2-yl)-2,5,8-triazaspiro-[3.5]nonane-6,9-dione], the “CDMF75 IC15” value worked out at 6600 nM.

Regarding `Cc1ncccc1N1CC2(C1)C(=O)N(C(C)C)CC(=O)N2Cc1ccc(Cl)cc1` [Compound 13, 5-(4-chlorobenzyl)-8-isopropyl-2-(2-methyl-pyridin-3-yl)-2,5,8-triazaspiro[3.5]nonane-6,9-dione], the “CDMF75 IC15” value is 7100 nM.

The experiment is the same for the next values; noted with them: Ca2+ activating to 75% of maximal rate, listed as 838A.
On to `O=C1C(C23CC(O)(C2)C3)N(Cc2ccc(C(F)(F)F)cc2)C(=O)CN1c1ncc(Cl)cc1F` (single isomer, unassigned) [Enantiomer 838A, 1-(5-chloro-3-fluoropyridin-2-yl)-3-(3-hydroxybicyclo[1.1.1]pentan-1-yl)-4-(4-(trifluoromethyl)benzyl)piperazine-2,5-dione], for which the “CDMF75 IC15” value is 2300 nM.

Still in this experiment, the particulars now being: Ca2+ activating to 75% of maximal rate, listed as 838B.
Turning to `O=C1C(C23CC(O)(C2)C3)N(Cc2ccc(C(F)(F)F)cc2)C(=O)CN1c1ncc(Cl)cc1F` (single isomer, unassigned) [Enantiomer 838B, 1-(5-chloro-3-fluoropyridin-2-yl)-3-(3-hydroxybicyclo[1.1.1]pentan-1-yl)-4-(4-(trifluoromethyl)benzyl)piperazine-2,5-dione], the “CDMF75 IC15” value is above 39000 nM.

The same experiment, now with this note: Ca2+ activating to 75% of maximal rate, listed as 867A.
Consider `O=C1CN(c2ccc(Cl)cc2F)C(=O)C2(CC(O)C2)N1Cc1ccc(F)cc1` (single isomer, unassigned) [Diastereomer 867A, 8-(4-chloro-2-fluorophenyl)-5-(4-fluorobenzyl)-2-hydroxy-5,8-diazaspiro[3.5]nonane-6,9-dione], for which the “CDMF75 IC15” value stood at 2100 nM.

Still in this experiment, the particulars now being: Ca2+ activating to 75% of maximal rate, listed as 867B.
Take `O=C1CN(c2ccc(Cl)cc2F)C(=O)C2(CC(O)C2)N1Cc1ccc(F)cc1` (single isomer, unassigned) [Diastereomer 867B, 8-(4-chloro-2-fluorophenyl)-5-(4-fluorobenzyl)-2-hydroxy-5,8-diazaspiro[3.5]nonane-6,9-dione]: the “CDMF75 IC15” value is 1700 nM.
